Experimental data from patent EP4417607A1, “HETEROCYCLIC COMPOUND AS SOS1 INHIBITOR AND USES THEREOF” (Nanjing Zaiming Pharmaceutical Co., Ltd., priority 2021, dated 2023).

Experiments:
H358 cells = assay: H358 cell proliferation inhibition (CellTiter-Glo luminescent cell viability assay); type: cell-based; conditions: Homo sapiens, NCI-H358, 168 h, 7 days
In short: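 H358 cells seeded at 3000 cells/well in RPMI1640/10% FBS, treated with compound for 7 days at 37 °C/5% CO2. Viability read by CellTiter-Glo 3D luminescence, normalised to cell-free (100%) and compound-free (0%) controls; IC50 fitted from 8 concentrations by four-parameter curve.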

[1] = system: p-ERK pathway in H358 cells; assay: p-ERK pathway inhibition in H358 cells (Advanced phospho-ERK (Thr202/Tyr204) cellular kit, HTRF); type: cell-based; conditions: Homo sapiens, NCI-H358, 1 h compound incubation
In short: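 IC50 from an 8-point four-parameter fit of % inhibition of ERK Thr202/Tyr204 phosphorylation, measured by HTRF 665/620 ratio in lysates. H358 cells were seeded at 50000/well, starved overnight without serum, and exposed to compound 1 h at 37 °C; controls were cell-free (100%) and untreated (0%).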

SMILES	IC50 (H358 cells)	IC50 [1]
Cc1nc(N[C@H](C)c2cccc(C#N)c2C)c2cn(N3CCOCC3)c(=O)c(OC3(C)CC3)c2n1 [Example 91, (R)-2-methyl-3-(1-((2-methyl-8-(1-methylcyclopropoxy)-6-morpholinyl-7-oxo-6,7-dihydropyrido[4,3-d]pyrimidin-4-yl)amino)ethyl)benzonitrile]	148 nM	133 nM
Cc1nc(N[C@H](C)c2cccc(C(F)F)c2F)c2cn(C3(CF)CC3)c(=O)c(N3CCN(C(C)C)CC3)c2n1 [Example 94, (R)-4-((1-(3-(difluoromethyl)-2-fluorophenyl)ethyl)amino)-6-(1-(fluoromethyl)cyclopropyl)-8-(4-isopropylpiperazin-1-yl)-2-methylpyrido[4,3-d]pyrimidine-7(6H)-one]	16.8 nM	60.9 nM
Cc1nc(N[C@H](C)c2cccc(C(F)F)c2F)c2cn(C3(CF)CC3)c(=O)c(N3CCN(C4COC4)CC3)c2n1 [Example 95, (R)-4-((1-(3-(difluoromethyl)-2-fluorophenyl)ethyl)amino)-6-(1-(fluoromethyl)cydopropyt)-2-methyt-8-(4-(oxetan-3-yt)piperazin-l-yt)pyrido[4,3-d]pyrimidine-7(6H)-one]	10.2 nM	30.8 nM
CCN(CC)c1c(=O)n(C2(CF)CC2)cc2c(N[C@H](C)c3cccc(C(F)F)c3F)nc(C)nc12 [Example 96, (R)-8-(diethylamino)-4-((1-(3-(difluoromethyl)-2-fluorophenyl)ethyl)amino)-6-(1-(fluoromethyl)cyclopropyl)-2-methylpyrido[4,3-d]pyrimidine-7(6H)-one]	50.5 nM	95.5 nM
Cc1nc(N[C@H](C)c2cccc(C(F)F)c2F)c2cn(C3(CF)CC3)c(=O)c(N3CCc4cn(C)nc4C3)c2n1 [Example 98, (R)-4-((1-(3-(difluoromethyl)-2-fluorophenyl)ethyl)amino)-6-(1-(fluoromethyl)cyclopropyl)-2-methyl-8-(2-methyl-2,4,5,7-tetrahydro-6H-pyrazolo[3,4-c]pyridin-6-yl)pyrido[4,3-d]pyrimidine-7(6H)-one]	44 nM	55.6 nM
Cc1nc(N[C@H](C)c2cccc(C(F)F)c2F)c2cn(N3CCOCC3)c(=O)c(-c3cnc4c(cnn4C)c3)c2n1 [Example 100]	80.8 nM	49.8 nM
Cc1nc(N[C@H](C)c2cccc(C(F)F)c2F)c2cn(C3(CF)CC3)c(=O)c(N=S(C)(C)=O)c2n1 [Example 103, (R)-4-((1-(3-(difluoromethyl)-2-fluorophenyl)ethyl)amino)-8-((dimethyl(oxo)-λ^6-sulfanylidene)amino)-6-(1-(fluoromethyl)cyclopropyl)-2-methylpyrido[4,3-d]pyrimidine-7(6H)-one]	130 nM	82.4 nM
Cc1nc(N[C@H](C)c2cccc(C(F)F)c2F)c2cn(C3(CF)CC3)c(=O)c(-n3ncc4ncccc43)c2n1 [Example 104, (R)-4-((1-(3-(difluoromethyl)-2-fluorophenyl)ethyl)amino)-6-(1-(fluoromethyl)cyclopropyl)-2-methyl-8-(1H-pyrazolo[4,3-b]pyridin-1-yl)pyrido[4,3-d]pyrimidine-7(6H)-one]	145 nM	57.5 nM
Cc1nc(N[C@H](C)c2cccc(C#N)c2C)c2cn(N3CCOCC3)c(=O)c(N3CCOCC3)c2n1 [Example 108, (R)-2-methyl-3-(1-((2-methyl-6,8-dimorpholine-7-oxo-6,7-dihydropyrido[4,3-d]pyrimidin-4-yl)amino)ethyl)benzonitrile]	76.4 nM	61.3 nM
Cc1nc(N[C@H](C)c2cccc(C(F)F)c2F)c2cn(C3(CF)CC3)c(=O)c(N3CCN(CC4(C)COC4)CC3)c2n1 [Example 109, (R)-4-((1-(3-(difluoromethyl)-2-fluorophenyl)ethyl)amino)-6-(1-(fluoromethyl)cyclopropyl)-2-methyl-8-(4-((3-methyloxetan-3-yl)methyl)piperazin-1-yl)pyrido[4,3-d]pyrimidine-7(6H)-one]	23.7 nM	35.5 nM
Cc1nc(N[C@H](C)c2cccc(C#N)c2C)c2cn(N3CCOCC3)c(=O)c(N3CCOC[C@@H]3C)c2n1 [Example 110, 2-methyl-3-((R)-1-((2-methyl-8-((S)-3-methylmorpholine)-6-morpholine-7-oxo-6,7-dihydropyrido[4,3-d]pyrimidin-4-yl)amino)ethyl)benzonitrile]	50.4 nM	73.6 nM
[2H][C@](C)(Nc1nc(C)nc2c(N3CCOC[C@@H]3C)c(=O)n(C3(CF)CC3)cc12)c1cccc(C(F)F)c1F [Example 112, 4-(((R)-1-(3-(difluoromethyl)-2-fluorophenyl)ethyl-1-d)amino)-6-(1-(fluoromethyl)cyclopropyl)-2-methyl-8-((S)-3-methylmorpholine)pyrido[4,3-d]pyrimidine-7(6H)-one]	21.2 nM	109 nM
[2H]C([2H])([2H])[C@@H](Nc1nc(C)nc2c(N3CCOC[C@@H]3C)c(=O)n(C3(CF)CC3)cc12)c1cccc(C(F)F)c1F [Example 113, 4-(((R)-1-(3-(difluoromethyl)-2-fluorophenyl)ethyl-2,2,2-d3)amino)-6-(1-(fluoromethyl)cyclopropyl)-2-methyl-8-((S)-3-methylmorpholine)pyrido[4,3-d]pyrimidine-7(6H)-one]	15.6 nM	70 nM
Cc1nc(N[C@H](C)c2cccc(C(C)(F)F)c2F)c2cn(C3(CF)CC3)c(=O)c(N3CCOC[C@@H]3C)c2n1 [Example 114, 4-(((R)-1-(3-(1,1-difluoroethyl)-2-fluorophenyl)ethyl)amino)-6-(1-(fluoromethyl)cyclopropyl)-2-methyl-8-((S)-3-methylmorpholine)pyrido[4,3-d]pyrimidine-7(6H)-one]	24.6 nM	54.8 nM
Cc1nc(N[C@H](C)c2cccc([N+](=O)[O-])c2C)c2cn(C3(CF)CC3)c(=O)c(N3CCOCC3)c2n1 [Example 117, (R)-6-(1-(fluoromethyl)cyclopropyl)-2-methyl-4-((1-(2-methyl-3-nitrophenyl)ethyl)amino)-8-morpholinylpyrido[4,3-d]pyrimidine-7(6H)-one]	13.3 nM	22.4 nM
Cc1nc(N[C@H](C)c2cccc(C(F)F)c2F)c2cn(C3(CF)CC3)c(=O)c(OC(F)F)c2n1 [Example 119, (R)-8-(difluoromethoxy)-4-((1-(3-(difluoromethyl)-2-fluorophenyl)ethyl)amino)-6-(1-(fluoromethyl)cyclopropyl)-2-methylpyrido[4,3-d]pyrimidine-7(6H)-one]	72.1 nM	54.6 nM
Cc1nc(N[C@H](C)c2cccc(C(F)F)c2F)c2cn(N3CCOCC3)c(=O)c(-c3cnc4ccnn4c3)c2n1 [Example 120, (R)-4-((1-(3-(difluoromethyl)-2-fluorophenyl)ethyl)amino)-2-methyl-6-morpholino-8-(pyrazolo[1,5-a]pyrimidin-6-yl)pyrido[4,3-d]pyrimidine-7(6H)-one]	46 nM	87.4 nM
Cc1nc(N[C@H](C)c2cccc(C(F)F)c2F)c2cn(C3(CF)CC3)c(=O)c(OCc3ccccn3)c2n1 [Example 122, (R)-4-((1-(3-(difluoromethyl)-2-fluorophenyl)ethyl)amino)-6-(1-(fluoromethyl)cyclopropyl)-2-methyl-8-(pyridin-2-ylmethoxy)pyrido[4,3-d]pyrimidine-7(6H)-one]	102 nM	111 nM
[2H][C@](C)(Nc1nc(C)nc2c(N3CCS(=O)(=O)CC3)c(=O)n(C3(CF)CC3)cc12)c1cccc(C(F)F)c1F [Example 124, (R)-4-((1-(3-(difluoromethyl)-2-fluorophenyl)ethyl-1-d)amino)-8-(1,1-dioxidothiomorpholinyl)-6-(1-(fluoromethyl)cyclopropyl)-2-methylpyrido[4,3-d]pyrimidine-7(6H)-one]	41.9 nM	62.3 nM
[2H][C@](C)(Nc1nc(C)nc2c(N3CCC(S(C)(=O)=O)CC3)c(=O)n(C3(CF)CC3)cc12)c1cccc(C(F)F)c1F [Example 125, (R)-4-((1-(3-(difluoromethyl)-2-fluorophenyl)ethyl-1-d)amino)-6-(1-(fluoromethyl)cyclopropyl)-2-methyl-8-(4-(methylsulfonyl)piperidin-1-yl)pyrido[4,3-d]pyrimidine-7(6H)-one]	35.6 nM	59.8 nM
Cc1nc(N[C@H](C)c2cccc(C(F)F)c2F)c2cn(C3(CF)CC3)c(=O)c(N3[C@@H](C)COC[C@@H]3C)c2n1 [Example 127, 4-(((R)-1-(3-(difluoromethyl)-2-fluorophenyl)ethyl)amino)-8-((3S,5S)-3,5-dimethylmorpholinyl)-6-(1-(fluoromethyl)cyclopropyl)-2-methylpyrido[4,3-d]pyrimidine-7(6H)-one]	90 nM	72.5 nM
Cc1nc(N[C@H](C)c2cccc(C(F)F)c2F)c2cn(C3(CF)CC3)c(=O)c(N3CCN(CC(F)(F)F)CC3)c2n1 [Example 131, (R)-4-((1-(3-(difluoromethyl)-2-fluorophenyl)ethyl)amino)-6-(1-(fluoromethyl)cyclopropyl)-2-methyl-8-(4-(2,2,2-trifluoroethyl)piperazin-1-yl)pyrido[4,3-d]pyrimidine-7(6H)-one]	88.4 nM	56.5 nM
Cc1nc(N[C@H](C)c2cccc(C(F)F)c2F)c2cn(C3(CF)CC3)c(=O)c(N3CCN(CC4CC4)CC3)c2n1 [Example 132, (R)-8-(4-(cyclopropylmethyl)piperazin-1-yl)-4-((1-(3-(difluoromethyl)-2-fluorophenyl)ethyl)amino)-6-(1-(fluoromethyl)cyclopropyl)-2-methylpyrido[4,3-d]pyrimidine-7(6H)-one]	37.3 nM	84.3 nM
